Measurements published in PMC10004634 (PLOS ONE, 2023).

Legend:
[1] = system: TMD8 subcutaneous xenograft; assay: TMD8 subcutaneous xenograft model, tumor volume; assay type: in vivo, mouse; settings: SCID mice; 1, 3, 10 mg/kg BID orally, 21 days
Protocol: The present study was conducted in compliance with the Guidance for Animal Experiments, the Ethical Standards for Experiments using Human Tissues, and the Standards for Safety Management of Pathogens established by Ono Pharmaceutical Co., Ltd. Female C.B-17/Icr-scid/scidJcl mice (hereafter referred to as severe combined immunodeficient [SCID] mice) were obtained from CLEA Japan, Inc. (Tokyo, Japan). The age at the beginning of the experiment was 6 weeks. To establish the TMD8 xenograft model, TMD8 cell suspension (0.1 mL, 1 × 10^8 cells/mL) was subcutaneously injected into the right flank of SCID mice under pentobarbital anesthesia. […] Tumor diameters and body weight were measured every 3 or 4 days after group assignment. The tumor growth inhibition rate (%) in the tirabrutinib-treated groups, versus the vehicle group, was calculated based on tumor volume. Statistical tests were performed with the SAS 9.2 (SAS Institute Japan Ltd., Tokyo, Japan) TS2M3-based EXSUS system version 7.7.1 (CAC Corporation, Tokyo, Japan). The Dunnett test was used to compare tumor volume in the tirabrutinib- and vehicle-treated groups, and linear regression analysis was used to study dose response in the tirabrutinib groups. The statistical tests were two-sided with a 5% significance level.

TMD8 xenograft tumor = assay: Gene expression microarray analysis of TMD8 xenograft tumors
Protocol: The TMD8 xenograft model was also used for microarray analysis. […] After 21 days of drug administration and 24 h after the final dose, the mice underwent laparotomy under isoflurane anesthesia and were sacrificed by exsanguination. Tumors were collected and quickly frozen with liquid nitrogen. RNA extraction and gene expression microarray analysis were performed at LSI Medience Corporation (Tokyo, Japan) using the miRNeasy® mini kit (Qiagen, Hilden, Germany) and the Low Input Quick Amp Labeling Kit (Agilent Technologies, Santa Clara, CA, USA) according to the manufacturers’ instructions. The DNA microarray results were processed using Expressionist Analyst (GeneData, Basel, Switzerland) and Excel.

BTK = BTK (Homo sapiens, UniProt Q06187); assay: In vivo pharmacodynamics: BTK phosphorylation in TMD8 xenograft tumors (flow cytometry); parameters: endogenous in cells; host or cells: TMD8 tumour cells from subcutaneous xenografts in SCID mice; settings: TMD8, mouse, 1 h after final administration, read-out: BTK phosphorylation inhibition rate in tumor
Sequence of BTK (Q06187 whole entry): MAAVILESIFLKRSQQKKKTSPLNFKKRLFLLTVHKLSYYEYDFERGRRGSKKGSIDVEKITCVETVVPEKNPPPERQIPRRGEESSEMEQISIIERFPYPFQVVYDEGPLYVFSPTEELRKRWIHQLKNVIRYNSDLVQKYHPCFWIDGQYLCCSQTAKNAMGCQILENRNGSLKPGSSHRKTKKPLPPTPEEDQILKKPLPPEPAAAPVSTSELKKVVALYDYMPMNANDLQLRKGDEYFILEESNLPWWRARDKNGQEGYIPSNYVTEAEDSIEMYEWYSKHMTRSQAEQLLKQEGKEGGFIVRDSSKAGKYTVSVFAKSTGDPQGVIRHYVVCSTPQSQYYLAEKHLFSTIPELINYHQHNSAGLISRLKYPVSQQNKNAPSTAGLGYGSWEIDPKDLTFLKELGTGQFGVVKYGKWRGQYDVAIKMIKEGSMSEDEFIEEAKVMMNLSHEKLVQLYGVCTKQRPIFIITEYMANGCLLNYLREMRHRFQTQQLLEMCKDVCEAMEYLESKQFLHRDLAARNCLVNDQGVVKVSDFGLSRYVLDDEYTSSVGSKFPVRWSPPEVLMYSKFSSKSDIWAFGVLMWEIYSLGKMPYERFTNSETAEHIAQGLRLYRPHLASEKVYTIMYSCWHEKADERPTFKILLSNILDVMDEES
Protocol: One hour after the final dosing, mice underwent laparotomy under isoflurane anesthesia and were sacrificed by exsanguination; tumors were collected. After measuring the wet weight, each tumor was placed on a 70-μm cell strainer (BD Falcon, Franklin Lakes, NJ, USA) placed in one well of a six-well plate on ice. After adding an amount of precooled culture medium, tumor cells were detached. The cell suspension was transferred to a tube and centrifuged for 8 min at 400 × g. Supernatant was excluded by aspiration, and cells were resuspended in culture medium. The tumor suspension was diluted with culture medium to a cell density of 1.0 × 10^6 cells/mL and pipetted into a 96-well plate. […] Cells were incubated for a further 10 min. Fix Buffer 1 (BD Biosciences, Franklin Lakes, NJ, USA) was added to each well, and the plate was centrifuged for 8 min at 400 × g at room temperature; the supernatant was removed by decantation. Each sample was washed twice with Perm Wash Buffer (BD Biosciences) before the addition of rabbit monoclonal p-BTK antibody (Tyr-223) (Novus Biologicals, #NB100-79907) diluted 500-fold with Perm Wash Buffer and 30-min incubation in the dark at room temperature. Cells underwent two rounds of Perm Wash buffer washes and centrifugation before the addition of the secondary antibody (100 μL Alexa Fluor 488 [Fab’] 2 fragments of goat anti-rabbit IgG [H+L]; Thermo Fisher Scientific) diluted 5,000-fold with Perm Wash buffer. After a 30-min incubation in the dark at room temperature, cells were washed once more and suspended with Stain Buffer (BD Biosciences). Cytomics FC500 MPL and data analysis software CXP Analysis (both from Beckman Coulter K.K, Shizuoka, Japan) were used for flow cytometry analysis. A gate containing the cell population of interest was created in a forward scatter and side scatter dot plot. […] The 7-AAD-positive cell rate (%) and the mean fluorescent intensity of BTK phosphorylation in cells in the relevant gate were measured. […]

ERBB2 = ERBB2 (Homo sapiens, UniProt P04626); assay: Z'-Lyte kinase inhibition assay; assay type: biochemical; parameters: purchased Thermo Fisher Scientific (Invitrogen Z'-Lyte service); settings: 60 min preincubation
Sequence of ERBB2 (P04626 23-1255): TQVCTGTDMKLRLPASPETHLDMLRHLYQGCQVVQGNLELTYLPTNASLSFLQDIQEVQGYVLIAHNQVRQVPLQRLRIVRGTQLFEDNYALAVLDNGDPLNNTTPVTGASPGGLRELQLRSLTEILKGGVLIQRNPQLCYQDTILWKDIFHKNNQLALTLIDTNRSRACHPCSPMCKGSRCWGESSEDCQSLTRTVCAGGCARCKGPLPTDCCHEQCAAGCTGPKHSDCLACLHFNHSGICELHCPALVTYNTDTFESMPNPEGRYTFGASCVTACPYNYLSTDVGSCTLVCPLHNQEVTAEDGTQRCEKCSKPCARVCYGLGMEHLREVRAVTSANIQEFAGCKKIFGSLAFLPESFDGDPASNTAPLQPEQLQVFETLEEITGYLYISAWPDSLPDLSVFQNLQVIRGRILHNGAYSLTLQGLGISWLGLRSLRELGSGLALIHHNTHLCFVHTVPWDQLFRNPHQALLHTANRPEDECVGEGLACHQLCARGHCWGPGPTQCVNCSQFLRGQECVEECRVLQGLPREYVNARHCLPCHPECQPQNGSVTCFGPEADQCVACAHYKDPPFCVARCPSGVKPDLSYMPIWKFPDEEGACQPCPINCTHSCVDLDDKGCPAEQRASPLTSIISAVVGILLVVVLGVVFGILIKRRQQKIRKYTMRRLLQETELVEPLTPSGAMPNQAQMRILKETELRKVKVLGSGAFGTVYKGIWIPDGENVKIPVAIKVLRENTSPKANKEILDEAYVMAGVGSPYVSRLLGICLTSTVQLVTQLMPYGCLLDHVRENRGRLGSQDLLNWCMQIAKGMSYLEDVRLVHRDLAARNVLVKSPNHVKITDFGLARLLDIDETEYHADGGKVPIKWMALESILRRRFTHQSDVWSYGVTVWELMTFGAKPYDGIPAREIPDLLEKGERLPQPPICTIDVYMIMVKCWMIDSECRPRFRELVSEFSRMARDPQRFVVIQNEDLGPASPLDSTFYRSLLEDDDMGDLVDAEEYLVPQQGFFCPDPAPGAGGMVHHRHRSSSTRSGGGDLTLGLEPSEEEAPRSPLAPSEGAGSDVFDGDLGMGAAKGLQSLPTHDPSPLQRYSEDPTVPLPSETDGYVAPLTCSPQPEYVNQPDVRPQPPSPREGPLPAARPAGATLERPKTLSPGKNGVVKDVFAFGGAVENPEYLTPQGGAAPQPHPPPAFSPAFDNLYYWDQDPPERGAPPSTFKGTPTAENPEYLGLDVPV
Protocol: In all the assays, each test compound was preincubated with peptide/kinase mixture or kinase/antibody mixture for 60 min at room temperature before adding the ATP solution or AlexaFluor labeled Tracer to initiate the 60-min incubation of the reactants.

SMILES: CC#CC(=O)N1CC[C@@H](n2c(=O)n(-c3ccc(Oc4ccccc4)cc3)c3c(N)ncnc32)C1 [Tirabrutinib]
- anti-tumor effect (tumor volume) [1]: dose-dependent anti-tumor effect
- number of downregulated probes (TMD8 xenograft tumor; 10 mg/kg BID 21 days vs vehicle, fold change <0.5, P < 0.01): 575
- number of upregulated probes (TMD8 xenograft tumor; 10 mg/kg BID 21 days vs vehicle, fold change >2, P < 0.01): 549
- PRDM1 expression (TMD8 xenograft tumor; TMD8 xenograft, tirabrutinib vs vehicle): repressed
- inhibition at 1 mg/kg (BTK; 1 mg/kg BID 21 days): 64%
- inhibition at 3 mg/kg (BTK; 3 mg/kg BID 21 days): 79.2%
- inhibition at 10 mg/kg (BTK; 10 mg/kg BID 21 days): 85.4%

SMILES: C=CC(=O)N1CCC([C@@H]2CCNc3c(C(N)=O)c(-c4ccc(Oc5ccccc5)cc4)nn32)CC1 [Zanubrutinib]
- IC50 (ERBB2): 34.8 nM
